Values of other authors in patent US20240352228A1, “NOVEL FLAME RETARDANT” (Chemische Fabrik Budenheim KG, priority 2021, published 2024).

Settings: general statement in description, no method given

Nc1nc(N)nc(N)n1 [melamine, Melamine]
decomposition temperature: > 350 °C
